Test results reported in ChEMBL document CHEMBL1201862, “PubChem BioAssay data set” (2004).
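Five compound concentrations were applied to cells in 96-well plates for 48 hours; endpoints were derived by simple linear interpolation of the resulting dose-response curve. Here, GI50 denotes the concentration required for 50% inhibition of growth.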 Activity calls are given as the source filed them. Cut-off read from the data, not from the text of the source: active = GI50 up to about 1.1 µM and inactive = higher.

Columns and labels:
Experiment in all cases: NCI-60 cell line screen, 48 h
[1] = tested on: 786-0
[2] = tested on: A498
[3] = tested on: SF-295
[4] = tested on: OVCAR-3
[5] = tested on: MDA-N
[6] = tested on: OVCAR-4
[7] = tested on: K562
[8] = tested on: SK-MEL-2
[9] = tested on: T47D
[10] = tested on: KM12
[11] = tested on: PC-3
[12] = tested on: IGROV-1
[13] = tested on: Hs-578T
[14] = tested on: HL-60
[15] = tested on: MOLT-4
[16] = tested on: HOP-92
[17] = tested on: SNB-19
[18] = tested on: RXF 393
[19] = tested on: NCI-H23
[20] = tested on: MCF7

Measured: GI50

Cc1ccc(Nc2nc(=O)c3c([nH]c4ccccc43)s2)cc1
inactive: [1] 14.5 µM | [2] 18.1 µM | [3] 11.8 µM | [4] 14 µM | [5] 2.34 µM | [6] 18.1 µM | [7] 6.27 µM | [8] 14.2 µM | [9] 15.4 µM | [10] 3.43 µM | [11] 15.1 µM | [12] 13.7 µM | [13] 27.2 µM | [14] 14.8 µM | [15] 21.7 µM | [16] 10.1 µM | [17] 26.4 µM

O=C(/C=C1/Nc2ccc([N+](=O)[O-])cc2N/C1=C/C(=O)c1ccc(Cl)cc1)c1ccccc1
inactive: [18] 23.8 µM | [1] 48.3 µM | [2] 35.6 µM | [3] 23.4 µM | [4] > 100 µM | [5] > 100 µM | [6] > 100 µM | [7] 55.8 µM | [8] 19.9 µM | [9] > 100 µM | [19] 20.3 µM | [10] > 100 µM | [11] > 100 µM | [12] > 100 µM | [20] > 100 µM | [15] > 100 µM | [17] 37 µM

COc1cc2c(cc1OC)C(c1ccccc1CCCCl)=NCC2
inactive: [18] > 100 µM | [1] > 100 µM | [2] > 100 µM | [3] 68.7 µM | [4] > 100 µM | [6] 91.4 µM | [7] 35.8 µM | [8] > 100 µM | [9] 42.8 µM | [19] 42.5 µM | [10] 55.6 µM | [11] 49.9 µM | [12] 33.9 µM | [13] 69 µM | [14] 28.8 µM | [20] 95.5 µM | [15] 80.4 µM | [16] 39.1 µM | [17] > 100 µM

COc1ccc(-n2c(CCCC(=O)O)nc3c2C(=O)c2ccccc2C3=O)cc1
inactive: [1] > 100 µM | [2] > 100 µM | [3] 43 µM | [4] 33.3 µM | [5] 31.4 µM | [6] 53.3 µM | [7] 47.3 µM | [8] 84.7 µM | [9] 88.3 µM | [19] 44.1 µM | [10] 64.1 µM | [12] 79.3 µM | [13] > 100 µM | [14] 31.1 µM | [20] 32.6 µM | [15] 68.1 µM | [16] 20.2 µM | [17] > 100 µM

CO/C(=N\N=C\c1ccc(Cl)c(Cl)c1)c1ccncc1
inactive: [18] > 10 µM | [1] > 10 µM | [3] > 10 µM | [4] > 10 µM | [5] > 10 µM | [7] > 10 µM | [8] > 10 µM | [9] > 10 µM | [19] > 10 µM | [10] > 10 µM | [11] > 10 µM | [12] > 10 µM | [14] > 10 µM | [20] > 10 µM | [15] > 10 µM | [16] 4.26 µM | [17] > 10 µM

OCCN(CCO)c1ccc2c(-c3ccccc3)cc(N(CCO)CCO)nc2n1
inactive: [18] > 100 µM | [1] > 100 µM | [2] 54.2 µM | [3] > 100 µM | [4] > 100 µM | [6] > 100 µM | [7] > 100 µM | [8] > 100 µM | [9] > 100 µM | [19] > 100 µM | [10] > 100 µM | [11] > 100 µM | [12] > 100 µM | [13] > 100 µM | [20] > 100 µM | [15] > 100 µM | [17] > 100 µM
